Where two headings read alike, the source gives them in different places.
Assays:
[1] = test system: mixed culture of S. thermophilus and L. bulgaricus; test: Intervention study: acidification of mixed culture in reconstituted skim milk; format: cell-based; details: 37° C., 19 h, stimulatory effects less than with the mono-cultures
Experimental: Cultures of S. thermophilus, L. bulgaricus and a mixed culture were prepared in 0.8 volume reconstituted skim milk with 0.2 volume of a solution with compounds: Na-pyruvate (1.82 mM), Na-formate (1.47 mM), folic acid (1 mM), nucleobases (10 mg/L each) (all representing purine and pyrimidine metabolism), Tween-20 (105.9 μM) (as a supply of lauric acid), Tween-80 (110 mg/L) (as a supply of oleic acid). Here after these compounds are referred to as ‘interaction compounds’. The LCFAs oleic acid and lauric acid are poorly soluble and therefore we used Tween-20 and Tween-80. The effect of each of all interaction compounds on growth and acidification was tested in a single addition and a single omission strategy. Paired comparisons were made of a single compound versus nothing added (neg. control), and of all compounds minus one added versus all (pos. control). Acidification of quadruplicate cultures of 250 μL, was measured at 37° C. for 19 h in hydroplates (PreSens—Precision Sensing GmbH, Germany) where after CFU counts were determined using a rapid miniplating method (36). Significant differences in acidification were determined by comparing the maximal acidification rate using a two-tailed Students t-test (p=0.05). Similarly, significant differences were calculated between the final pH values and between the colony-forming units. […]

[2] = test system: L. bulgaricus; test: Intervention study: acidification of L. bulgaricus mono-culture in reconstituted skim milk; format: cell-based, Lactobacillus delbrueckii subsp. bulgaricus; details: 37° C., 19 h
Experimental: (§1) Cultures of S. thermophilus, L. bulgaricus and a mixed culture were prepared in 0.8 volume reconstituted skim milk with 0.2 volume of a solution with compounds: Na-pyruvate (1.82 mM), Na-formate (1.47 mM), folic acid (1 mM), nucleobases (10 mg/L each) (all representing purine and pyrimidine metabolism), Tween-20 (105.9 μM) (as a supply of lauric acid), Tween-80 (110 mg/L) (as a supply of oleic acid). Here after these compounds are referred to as ‘interaction compounds’. The LCFAs oleic acid and lauric acid are poorly soluble and therefore we used Tween-20 and Tween-80. The effect of each of all interaction compounds on growth and acidification was tested in a single addition and a single omission strategy. Paired comparisons were made of a single compound versus nothing added (neg. control), and of all compounds minus one added versus all (pos. control). Acidification of quadruplicate cultures of 250 μL, was measured at 37° C. for 19 h in hydroplates (PreSens—Precision Sensing GmbH, Germany) where after CFU counts were determined using a rapid miniplating method (36). Significant differences in acidification were determined by comparing the maximal acidification rate using a two-tailed Students t-test (p=0.05). Similarly, significant differences were calculated between the final pH values and between the colony-forming units. A higher cell count, lower final pH, higher acidification rate and a shorter time to reach this rate are considered stimulatory effect of the intervention compared to the control.

[3] = test system: S. thermophilus; test: Intervention study: acidification and growth of S. thermophilus mono-culture in reconstituted skim milk; format: cell-based, Streptococcus thermophilus; details: for Acidification by S. thermophilus: mono-culture in reconstituted skim milk, 37° C., 19 h, compounds listed in decreasing order of stimulation: formic acid, pyruvic acid, folic acid, Tween-20; for Growth of S. thermophilus in monoculture: in the absence of Lactobacillus bulgaricus
Experimental: as §1

[4] = test system: pfl (pyruvate formate lyase gene); details: mixed culture supplemented with formic acid
From the text: (§2) Microarrays were spotted on the Agilent 8x 15K platform (Agilent Technologies, Santa Clara, Calif., USA) with a custom probe design (AMADID 015342) comprising the sequences of both S. thermophilus CNRZ1066 (released by NCBI, genbank accession no. NC 006449) and L. bulgaricus ATCC BAA-365 (released by JGI, genbank accession no. NC 008529). The probes were designed with the objective to minimize cross-hybridization: the probes were species-specific, i.e. all probes were designed as 60-mers with a target score of 100% to the target gene, allowing no binding of cDNA that is 1 base different (mismatch) if the correct hybridization temperature (65° C.) and washing temperature (37° C.) are used. In total there are 5438 probes representing 1899 genes of S. thermophilus and 4028 spots representing 1709 genes of L. bulgaricus. Most genes are represented by 3 probes or more. Only 55 genes in S. thermophilus and 77 in L. bulgaricus are represented by one probe and only 5 genes of S. thermophilus and 31 genes of L. bulgaricus are lacking. The selectivity of strain specific gene detection was tested by a series of transcriptome profiling experiments of samples from MRS-grown mono-cultures of both strains. […] They were excluded from further analysis.
(§3) The high protein content of milk and the polysaccharide production by the grown microorganisms make cell harvesting problematic. Furthermore, sampling and quenching need to be carried out rapidly in order to prevent the introduction of technical errors in a transcriptomics experiment. Several procedures have been developed to “clear” the milk to enable cell harvest by centrifugation without the contamination with milk solids. However, milk cleaning procedures are time consuming and require drastic changes in pH and the addition of large quantities of sodium citrate.

[5] = test system: genes involved in biosynthesis of purines and folic acid cycling; details: formic acid supplied, both species
From the text: as §2, §3

[6] = test system: pflA (pyruvate formate lyase gene); details: mixed culture supplemented with formic acid
From the text: as §2, §3

| Compound | Acidification of the mixed cultures [1] | L. bulgaricus acidification [2] | Acidification by S. thermophilus [3] | Growth of S. thermophilus in monoculture [3] | Expression of pfl down-regulated when formic acid was supplied [4] | Expression of genes involved in biosynthesis of purines and folic acid cycling ([5]; early (second) exponential phase) | Expression of genes involved in biosynthesis of purines and folic acid cycling ([5]; mid exponential phase) | Expression of pflA down-regulated when formic acid was supplied [6] |
| --- | --- | --- | --- | --- | --- | --- | --- | --- |
| CC(=O)C(=O)O [pyruvic acid] | still stimulated | small stimulatory effect | stimulated | stimulate growth |  |  |  |  |
| Nc1nc2ncc(CNc3ccc(C(=O)N[C@@H](CCC(=O)O)C(=O)O)cc3)nc2c(=O)[nH]1 [folic acid] |  | small stimulatory effect | stimulated | stimulate growth |  |  |  |  |
| O=CO [formic acid] | still stimulated | stimulated the most | stimulated |  | 3.8 fold | lower | higher | 5.7 fold |
| Tween-20 |  | small stimulatory effect | stimulated | stimulate growth |  |  |  |  |
| Tween-80 |  | small stimulatory effect |  |  |  |  |  |  |

Source: patent US20120276245A1, “METHOD FOR IMPROVED FERMENTATION” (STICHTING TOP INSTITUTE FOOD AND NUTRITION, priority 2009, published 2012)
